Converted amounts (≈) assume the structure as drawn.

Data set [1] deals with LNCaP cells. The data set can be described thus: Anti-proliferative activity on LNCaP in complete medium. Type of data set: cell-based. The conditions noted are these: Homo sapiens, 144 h, complete medium, 144 h incubation, Cell-Titer-Glow, read-out: IC50 on the LNCaP cells in culture (inhibition of cell proliferation by 50%). The method, then:
The anti-proliferative activity of the compounds of the present invention is determined on LNCaP in complete medium by applying the following experimental procedure:
The LNCaP cell type (ATCC, 1740) originates from a prostate carcinoma. This line expresses the androgen receptor and is hormone-dependent.
Maintenance of the LNCaP line is carried out in complete culture medium: RPMI, 10% of fetal calf serum, 2 mM glutamine, 100 U/ml penicillin, 0.1 mg/ml of streptomycin and 0.01M HEPES, 1 mM sodium pyruvate, […]. • Seeding the plates:
The LNCaP line is seeded at 20,000 cells/well in 90 μl of complete medium in 96-well plates coated with poly-D-lysine (Biocoat, Costar). • Treatment of the cells: 24 h after the seeding, the cells are treated with 10 μl/well of compound diluted in the culture medium. The concentrations used are the following: 1 nM/10/30/100/300/1000/3000/10,000 nM. The cells are incubated for 144 h at 37° C., 5% CO2. • Reading: After incubation for 6 days, cell proliferation was determined by Cell-Titer-Glow (CTG) Luminescent Cell Viability Assay. • Results: The experiments are carried out in duplicate and the best compounds are tested twice. […] Anti-Proliferative Activity on DU145 in Complete Medium

The subject of data set [2] is VCaP cells. The data set can be described thus: Anti-proliferative activity on VCaP in complete medium. Type of data set: cell-based. The conditions noted are these: Homo sapiens, Cell-Titer-Glow, read-out: IC50 on the VCaP cells in culture (inhibition of cell proliferation by 50%). The method, then:
• The cells of the VCaP line (ATCC CRL-2876) are seeded at 20000 cells/well in 90 μl of complete medium in 96-well plates coated with poly-D-lysine (Biocoat, Costar). • Treatment of the cells: 24 h after the seeding, the cells are treated with 10 μl/well of compound diluted in the culture medium. The concentrations used are the following: 1 nM/10/30/100/300/1000/3000/10,000 nM. The cells are incubated for 144 h at 37° C., 5% CO2. • Reading: After incubation for […], cell proliferation was determined by Cell-Titer-Glow (CTG) Luminescent Cell Viability Assay • Results: The experiments are carried out in duplicate and the best compounds are tested twice. A concentration value inhibiting the cell proliferation by 50% (IC50) is calculated.

Data set [3] deals with DU145 cells. The data set can be described thus: Anti-proliferative activity on DU145 in complete medium. Type of data set: cell-based. The conditions noted are these: DU145 (no androgen receptor), 144 h, up to 10,000 nM, Cell-Titer-Glow. How it is done:
It is used to evaluate the selectivity of the compounds for androgen receptor expressing cells. No activity of the compounds is expected. • The cells of the DU145 line (ATCC HTB-81) are seeded at 800 cells/well in 90 μl of complete medium in 96-well plates coated with poly-D-lysine (Biocoat, Costar). • Treatment of the cells: 24 h after the seeding, the cells are treated with 10 μl/well of compound diluted in the culture medium. The concentrations used are the following: 1 nM/10/30/100/300/1000/3000/10,000 nM. The cells are incubated for 144 h at 37° C., 5% CO2. • Reading: After incubation for 6 days, cell proliferation was determined by Cell-Titer-Glow (CTG) Luminescent Cell Viability Assay • Results: The experiments are carried out in duplicate and the best compounds are tested twice. A concentration value inhibiting the cell proliferation by 50% (IC50) is calculated.

Data set [4] in a line: Evaluation of solubility. It is filed as physicochemical. The conditions noted are these: aqueous buffer, kinetic from dmso stock; 100 mM potassium phosphate buffer pH 7.4, 0.1% DMSO, target 100 μM, 1 hour room temperature, LC-MS/MS. The method, then: Test compounds were prepared as stock solutions at 100 mM in DMSO. The stock solutions were diluted, in duplicate, into 100 mM potassium phosphate buffer (pH 7.4) to a target concentration of 100 μM with a final DMSO concentration of 0.1%. The solutions were shaken at 1000 rpm for 1 hour at room temperature followed by centrifugation for 10 minutes at 1200 rpm to precipitate un-dissolved particles. The supernatants were transferred to new tubes and the samples were further prepared as follows: • Undiluted: 5 μL of supernatant to 95 μL of ACN containing internal standard (IS) • 1:10 diluted: 10 μL of the supernatant into 90 μL K-buffer, mix, then transfer 5 μL of 1:10 diluted samples to 95 μL ACN containing IS • 1:100 diluted: 10 μL of the supernatant into 990 μL K-buffer, mix, then transfer 5 μL of 1:100 diluted samples to 95 μL of ACN containing IS
Samples (undiluted, 1:10 diluted, and 1:100 diluted) along with the standards were analyzed by LC-MS/MS.

As to `CC1(C)C(=O)N(c2ccc(S(C)(=O)=O)c(C(F)(F)F)c2)C(=O)N1C/C=C\Cn1cc(-c2ccc(S(C)(=O)=O)c(C(F)(F)F)c2)cn1` [Example 3, (Z)-5,5-dimethyl-3-(4-(methylsulfonyl)-3-(trifluoromethyl)phenyl)-1-(4-(4-(4-(methylsulfonyl)-3-(trifluoromethyl)phenyl)-1H-pyrazol-1-yl)but-2-en-1-yl)imidazolidine-2,4-dione], the IC50 in data set [1] is less than 1.5 µM; in data set [2], not above 5 µM. In addition, in data set [3], the “IC50 on DU145 cells (anti-proliferative effect)” value (from here on “IC50 on DU145 cells”) is “no measurable IC50”. For the same compound, the solubility (usually how much of the substance goes into solution per volume) at 1 h in data set [4] stood at 0.2 µM (≈ 0.139 µg/mL).

Regarding `CC1(C)C(=O)N(c2ccc(C#N)c(C(F)(F)F)c2)C(=O)N1C/C=C\CN1CCN(c2ccc(S(C)(=O)=O)c(C(F)(F)F)c2)C1=O` [Example 10, (Z)-4-(4,4-dimethyl-3-(4-(3-(4-(methylsulfonyl)-3-(trifluoromethyl)phenyl)-2-oxoimidazolidin-1-yl)but-2-en-1-yl)-2,5-dioxoimidazolidin-1-yl)-2-(trifluoromethyl)benzonitrile], in data set [2], the IC50 is not above 5 µM. Further, in data set [3], the “IC50 on DU145 cells” value is “no measurable IC50”.

As to `CC1(C)C(=O)N(c2ccc(C#N)c(C(F)(F)F)c2)C(=O)N1C/C=C\CN1CCC(c2ccc(C#N)c(C(F)(F)F)c2)C1` (stereo not drawn) [Example 12, (Z)-4-(1-(4-(3-(4-cyano-3-(trifluoromethyl)phenyl)-5,5-dimethyl-2,4-dioxoimidazolidin-1-yl)but-2-en-1-yl)pyrrolidin-3-yl)-2-(trifluoromethyl)benzonitrile], the results for the IC50 in data set [1] and in data set [2] were less than 1.5 µM and not above 5 µM, respectively. Further, the “IC50 on DU145 cells” value in data set [3] is “no measurable IC50”.

Regarding `CC1(C)C(=O)N(c2ccc(C#N)c(C(F)(F)F)c2)C(=O)N1C/C=C\CN1CC(c2ccc(S(C)(=O)=O)c(C(F)(F)F)c2)CC1=O` (stereo not drawn) [Example 13, (Z)-4-(4,4-dimethyl-3-(4-(4-(4-(methylsulfonyl)-3-(trifluoromethyl)phenyl)-2-oxopyrrolidin-1-yl)but-2-en-1-yl)-2,5-dioxoimidazolidin-1-yl)-2-(trifluoromethyl)benzonitrile], the IC50 in data set [1] is less than 1.5 µM; in data set [2], not above 5 µM. Further, the “IC50 on DU145 cells” value in data set [3] is on record as “no measurable IC50”.

Regarding `CC1(C)C(=O)N(c2ccc(C#N)c(C(F)(F)F)c2)C(=O)N1C/C=C\CN1CC(c2ccc(S(C)(=O)=O)c(Cl)c2)CC1=O` (stereo not drawn) [Example 14, (Z)-4-(3-(4-(4-(3-chloro-4-(methylsulfonyl)phenyl)-2-oxopyrrolidin-1-yl)but-2-en-1-yl)-4,4-dimethyl-2,5-dioxoimidazolidin-1-yl)-2-(trifluoromethyl)benzonitrile], the IC50 in data set [2] was not above 5 µM. In addition, the “IC50 on DU145 cells” value in data set [3] is “no measurable IC50”. In data set [4], this compound returned a solubility at 1 h of 24.1 µM (≈ 15 µg/mL).
